# Results from patent US20090004683A1, “Indicator Agent for Noninflammatory Stress Response and Use Thereof” (priority 2004, published 2009).
# How the values were obtained:
# caspase-1 = target: T1, caspase-1 (Mus musculus, UniProt P29452); assay: Caspase-1 activity in the adrenal of restraint stress mice (Ac-YVAD-MCA fluorescent substrate); format: in vivo; conditions: given i.p. during restraint
# T1 construct: from tissue; host or cells: mouse adrenal (homogenate)
# T1 sequence (P29452 119-296 limits assumed): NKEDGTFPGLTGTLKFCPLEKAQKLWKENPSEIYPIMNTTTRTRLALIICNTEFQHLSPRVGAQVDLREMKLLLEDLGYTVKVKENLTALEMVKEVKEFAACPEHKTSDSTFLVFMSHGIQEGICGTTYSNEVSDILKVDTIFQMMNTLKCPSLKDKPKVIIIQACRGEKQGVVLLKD
# T1 sequence (P29452 315-402 limits assumed): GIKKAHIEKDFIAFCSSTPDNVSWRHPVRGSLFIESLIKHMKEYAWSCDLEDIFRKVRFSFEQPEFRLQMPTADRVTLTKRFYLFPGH
# Method: (§1) Each mouse was kept in a restrainer for 1 hour, and Ac-YVAD-CHO (200 μM/50 μl PBS(−)), Z-FA-fmk (100 μM/50 μl PBS(−)) and SB-203580 (100 μg/50 μl PBS(−) per mouse) were administered intraperitoneally. 1 and 3 hours after the start of restraint, SOD-1 (20 U) and DPI (30 μg) were administered intraperitoneally to the mouse, and samples were analyzed by Western blotting.
# Caspase-1 activity in the adrenal was measured using a caspase assay kit (manufactured by BD-Pharmingen). Describing briefly, a homogenate of adrenal tissue was incubated with Ac-YVAD-MCA (acetyl-L-tyrosyl-L-valyl-L-alanyl-L-aspartic acid 4-methyl-coumaryl-7-amide), which is a fluorescent substrate for caspase-1, and the MCA leaving from the aforementioned substrate was measured using a fluorescence plate reader (excitation wavelength 380 nm, irradiation wavelength 420-460 nm).
# [1] = system: phosphorylated (Thr180/Tyr182) P38 MAP kinase; assay: Phosphorylated P38MAP kinase in the adrenal of restraint stress mice (Western blotting); format: in vivo, mouse; conditions: SOD-1 20 U i.p. 1 and 3 hours after start of restraint, FIG. 4A
# Method: as §1
# Western blot analysis of IL-18 and phosphorylated P38MAP kinase in adrenal tissue was performed as described below. The adrenal tissue was homogenized in an immunoprecipitation (IP) buffer solution (50 mM Tris pH 7.4, 150 mM NaCl, 0.5% NP-40 and 0.5% sodium deoxycholate) containing a protease inhibitor mixture (manufactured by Roche Diagnostics) using a Polytron homogenizer. The homogenate obtained (100 μg protein) was pre-clarified using protein A/G agarose (Exalpha Biologicals, Inc.), incubated with the anti-mouse IL-18 monoclonal antibody or the anti-phosphorylated (Thr180/Tyr182) P38 MAP kinase antibody and protein A/G agarose (50 μl), and centrifuged (at 13000×g for 25 minutes, 4° C.). The precipitate was boiled, and the adrenal protein was recovered, electrophoresed in 10-20% SDS-polyacrylamide gradient gel, and electrically transferred to a Hybond ECL (manufactured by Amersham) nitrocellulose membrane. The aforementioned membrane was incubated with an antibody (IL-18, phosphorylated (Thr180/Tyr182) P38 MAP kinase, caspase-1 or caspase-11), and the reacted protein was detected using an ECL plus system (manufactured by Amersham biosciences). Procaspase-11 and activated P38 MAP kinase were quantified using a Science Lab 99 image analysis system (manufactured by Fujifilm).
# [2] = system: Primary culture human skin keratinocytes; assay: IL-18 release from keratinocytes with UV-B ray irradiation; format: cell-based; conditions: 100 mJ UV-B, SOD 1-20 U/ml or water-soluble vitamin E 100 nM-10 mM/ml
# Method: Primary culture human skin keratinocytes (keratinocytes: purchased from CAMBREX Company) were cultured in a basal medium for keratinocytes contained in petri dishes for cell culture 6 cm in diameter at 1.0-2.0×10^6/dish. This was irradiated with 100 mJ of ultraviolet B rays (UV-B rays), after which the cells were cultured for 1 hour, after which the medium was collected, and the concentration of IL-18 protein in the medium was measured. Also, after the UV-B ray treatment, the cells were cultured in a medium containing SOD (1, 2.5, 5, 10, 20 U/ml), which is an active oxygen eliminator, or water-soluble vitamin E (100 nM, 1, 2.5, 5, 10 mM/ml), and the concentration of IL-18 protein in the medium was measured. In the keratinocytes, the activation and release of IL-18 by the active oxygen molecular species were observed. Furthermore, these were suppressed by SOD, which is an active oxygen eliminator, or by vitamin E, which neutralizes active oxygen, dose-dependently (FIGS. 7C and 7D).
# Brain astrocytes = assay: IL-18 release from astrocytes with paraquat stimulation; format: cell-based, mouse; conditions: astrocytes, 100 nM paraquat 1 hour; SOD 1-20 U/ml or water-soluble vitamin E 100 nM-10 mM/ml
# Method: Brain astrocytes isolated from the mouse neonatal brain by the method of Yang et al. (Yang P, Hernandez M R. Brain Res Brain Res Protoc. 2003 October; 12(2):67-76) were prepared at 1.5-2.0×10^6/ml. This was cultured in Dulbecco's minimum essential medium containing 100 nM of paraquat, which is an active oxygen generator, for 1 hour, after which the medium was exchanged with a paraquat-free medium. The cells were further cultured for 3 hours, after which the medium was collected, and the concentration of IL-18 protein in the medium was measured.
# Abdominal macrophages = assay: IL-18 release from macrophages with paraquat stimulation; format: cell-based, mouse; conditions: 100 nM paraquat 15 minutes, SOD 1-20 U/ml
# Method: Abdominal macrophages isolated from mice by the method of Hamilton et al. (Hamilton T A, Weiel J E, Adams D O., J. Immunol. 1984 May; 132(5):2285-90) were cultured in Dulbecco's minimum essential medium at 1.0-2.0×10^5/dish. The medium was exchanged with the aforementioned medium containing 100 nM of paraquat, which is an active oxygen generator, and the cells were cultured for 15 minutes, after which the medium was exchanged with a paraquat-free medium, and the cells were further cultured for 3 hours, after which the medium was collected, and the concentration of IL-18 protein in the medium was measured.
# Synovial membrane tissue = assay: IL-18 release from synovial membrane tissue with paraquat stimulation; format: cell-based, human; conditions: synovial membrane tissue of articular rheumatism patient, 100 nM paraquat 15 minutes; SOD 1-20 U/ml
# Method: Synovial membrane tissue collected from the articular synovial membrane at a lesion site of an articular rheumatism patient was subjected to tissue culture in an RPMI-1640 medium containing 10% fetal bovine serum by the method of Tanaka et al. (Tanaka M, Harigai M, Kawaguchi Y, Ohta S, Sugiura T, Takagi K, Ohsako-Higami S, Fukasawa C, Hara M, Kamatani N., J. Rheumatol. 2001 August; 28(8):1779-87). The medium was exchanged with the aforementioned medium containing 100 nM of paraquat, which is an active oxygen generator, and the cells were cultured for 15 minutes, after which the medium was exchanged with a paraquat-free medium, and the cells were further cultured for 1 hour, after which the medium was collected, and the concentration of IL-18 protein in the medium was measured.
substance,measurement,setting,value
SOD: superoxide dismutase (SOD)-1 purchased from Sigma; active oxygen eliminator,stress-induced increase in caspase-1 activity in the adrenal,caspase-1,reduced
same,inhibition of the phosphorylation of P38MAP kinase in the adrenal,[1],about 70%
same,activation and release of IL-18 into the medium,[2],suppressed
same,activation and release of IL-18 into the medium,Brain astrocytes,suppressed
same,activation and release of IL-18 into the medium,Abdominal macrophages,suppressed
same,activation and release of IL-18 into the medium,Synovial membrane tissue,suppressed
